According to publication PMC11864979, “First-in-class ultralong-target-residence-time p38α inhibitors as a mitosis-targeted therapy for colorectal cancer” (Nature Cancer, 2025):
Where two headings read alike, the source gives them in different places.

What was measured:
Assay in all cases: selectivity profiling in a panel of 340 wild-type kinases (Reaction Biology Europe)
Assay type in all cases: binding
340 wild-type kinases [1] = biological target: T1, 340 wild-type kinases (Homo sapiens, UniProt P37023)
T1 construct: purchased Reaction Biology Europe

340 wild-type kinases [2] = biological target: T2, 340 wild-type kinases (Homo sapiens, UniProt P11309)
T2 construct: purchased Reaction Biology Europe

340 wild-type kinases [3] = biological target: T3, 340 wild-type kinases (Homo sapiens, UniProt O15264)
T3 construct: purchased Reaction Biology Europe
T3 sequence (O15264 1-365): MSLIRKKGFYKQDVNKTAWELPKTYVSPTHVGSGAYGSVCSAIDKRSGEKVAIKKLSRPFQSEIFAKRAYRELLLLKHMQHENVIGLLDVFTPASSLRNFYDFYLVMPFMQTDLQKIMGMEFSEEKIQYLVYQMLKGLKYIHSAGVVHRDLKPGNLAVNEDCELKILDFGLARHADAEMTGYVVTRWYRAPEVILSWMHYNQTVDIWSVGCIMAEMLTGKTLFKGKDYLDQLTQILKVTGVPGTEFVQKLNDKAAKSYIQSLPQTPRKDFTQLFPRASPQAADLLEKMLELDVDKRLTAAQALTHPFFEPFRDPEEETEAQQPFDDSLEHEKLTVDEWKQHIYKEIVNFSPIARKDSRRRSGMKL

340 wild-type kinases [4] = biological target: T4, 340 wild-type kinases (Homo sapiens, UniProt P22607)
T4 construct: purchased Reaction Biology Europe

340 wild-type kinases [5] = biological target: T5, 340 wild-type kinases (Homo sapiens, UniProt P29376)
T5 construct: purchased Reaction Biology Europe

340 wild-type kinases [6] = biological target: T6, 340 wild-type kinases (Homo sapiens, UniProt O75582)
T6 construct: purchased Reaction Biology Europe

340 wild-type kinases [7] = biological target: T7, 340 wild-type kinases (Homo sapiens, UniProt P45984)
T7 construct: purchased Reaction Biology Europe

340 wild-type kinases [8] = biological target: T8, 340 wild-type kinases (Homo sapiens, UniProt Q9BQI3)
T8 construct: purchased Reaction Biology Europe

340 wild-type kinases [9] = biological target: T9, 340 wild-type kinases (Homo sapiens, UniProt P27037)
T9 construct: purchased Reaction Biology Europe

340 wild-type kinases [10] = biological target: T10, 340 wild-type kinases (Homo sapiens, UniProt P54764)
T10 construct: purchased Reaction Biology Europe

340 wild-type kinases [11] = biological target: T11, 340 wild-type kinases (Homo sapiens, UniProt P42685)
T11 construct: purchased Reaction Biology Europe

340 wild-type kinases [12] = biological target: T12, 340 wild-type kinases (Homo sapiens, UniProt P49761)
T12 construct: purchased Reaction Biology Europe

340 wild-type kinases [13] = biological target: T13, 340 wild-type kinases (Homo sapiens, UniProt Q9H4B4)
T13 construct: purchased Reaction Biology Europe

340 wild-type kinases [14] = biological target: T14, 340 wild-type kinases (Homo sapiens, UniProt P11362)
T14 construct: purchased Reaction Biology Europe

T12 sequence (P49761 whole entry): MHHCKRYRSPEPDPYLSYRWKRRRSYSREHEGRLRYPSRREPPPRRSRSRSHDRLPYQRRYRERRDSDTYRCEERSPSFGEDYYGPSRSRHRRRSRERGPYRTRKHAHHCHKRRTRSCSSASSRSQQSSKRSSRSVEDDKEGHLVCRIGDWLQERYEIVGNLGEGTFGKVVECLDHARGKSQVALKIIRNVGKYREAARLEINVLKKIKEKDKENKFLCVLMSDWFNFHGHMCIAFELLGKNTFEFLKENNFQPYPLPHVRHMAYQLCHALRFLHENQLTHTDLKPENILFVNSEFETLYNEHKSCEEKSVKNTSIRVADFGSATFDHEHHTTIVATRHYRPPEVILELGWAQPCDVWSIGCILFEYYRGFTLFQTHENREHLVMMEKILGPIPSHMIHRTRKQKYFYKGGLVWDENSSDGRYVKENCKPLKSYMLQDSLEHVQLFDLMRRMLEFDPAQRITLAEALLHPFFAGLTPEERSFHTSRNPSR
T4 sequence (P22607 23-806): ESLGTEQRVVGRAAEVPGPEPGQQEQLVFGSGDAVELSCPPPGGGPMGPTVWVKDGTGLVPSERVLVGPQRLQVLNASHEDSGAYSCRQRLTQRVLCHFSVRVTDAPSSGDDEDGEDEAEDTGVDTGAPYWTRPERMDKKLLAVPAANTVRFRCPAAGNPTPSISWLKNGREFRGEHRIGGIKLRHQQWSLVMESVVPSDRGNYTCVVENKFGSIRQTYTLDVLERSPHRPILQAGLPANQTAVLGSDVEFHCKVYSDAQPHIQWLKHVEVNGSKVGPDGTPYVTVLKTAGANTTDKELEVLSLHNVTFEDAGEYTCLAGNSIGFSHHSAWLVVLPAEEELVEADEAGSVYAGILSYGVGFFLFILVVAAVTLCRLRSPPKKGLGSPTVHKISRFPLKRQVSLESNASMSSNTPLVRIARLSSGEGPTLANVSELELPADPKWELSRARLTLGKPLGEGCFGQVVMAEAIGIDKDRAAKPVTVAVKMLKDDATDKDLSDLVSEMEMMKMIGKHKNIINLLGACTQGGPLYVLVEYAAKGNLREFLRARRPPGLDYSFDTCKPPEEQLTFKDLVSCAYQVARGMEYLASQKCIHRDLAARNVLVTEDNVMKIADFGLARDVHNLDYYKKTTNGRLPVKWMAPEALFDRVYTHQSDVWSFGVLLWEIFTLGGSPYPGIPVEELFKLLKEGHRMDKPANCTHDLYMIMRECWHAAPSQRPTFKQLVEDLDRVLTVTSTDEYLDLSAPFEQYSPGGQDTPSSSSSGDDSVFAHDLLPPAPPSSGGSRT
T10 sequence (P54764 20-986): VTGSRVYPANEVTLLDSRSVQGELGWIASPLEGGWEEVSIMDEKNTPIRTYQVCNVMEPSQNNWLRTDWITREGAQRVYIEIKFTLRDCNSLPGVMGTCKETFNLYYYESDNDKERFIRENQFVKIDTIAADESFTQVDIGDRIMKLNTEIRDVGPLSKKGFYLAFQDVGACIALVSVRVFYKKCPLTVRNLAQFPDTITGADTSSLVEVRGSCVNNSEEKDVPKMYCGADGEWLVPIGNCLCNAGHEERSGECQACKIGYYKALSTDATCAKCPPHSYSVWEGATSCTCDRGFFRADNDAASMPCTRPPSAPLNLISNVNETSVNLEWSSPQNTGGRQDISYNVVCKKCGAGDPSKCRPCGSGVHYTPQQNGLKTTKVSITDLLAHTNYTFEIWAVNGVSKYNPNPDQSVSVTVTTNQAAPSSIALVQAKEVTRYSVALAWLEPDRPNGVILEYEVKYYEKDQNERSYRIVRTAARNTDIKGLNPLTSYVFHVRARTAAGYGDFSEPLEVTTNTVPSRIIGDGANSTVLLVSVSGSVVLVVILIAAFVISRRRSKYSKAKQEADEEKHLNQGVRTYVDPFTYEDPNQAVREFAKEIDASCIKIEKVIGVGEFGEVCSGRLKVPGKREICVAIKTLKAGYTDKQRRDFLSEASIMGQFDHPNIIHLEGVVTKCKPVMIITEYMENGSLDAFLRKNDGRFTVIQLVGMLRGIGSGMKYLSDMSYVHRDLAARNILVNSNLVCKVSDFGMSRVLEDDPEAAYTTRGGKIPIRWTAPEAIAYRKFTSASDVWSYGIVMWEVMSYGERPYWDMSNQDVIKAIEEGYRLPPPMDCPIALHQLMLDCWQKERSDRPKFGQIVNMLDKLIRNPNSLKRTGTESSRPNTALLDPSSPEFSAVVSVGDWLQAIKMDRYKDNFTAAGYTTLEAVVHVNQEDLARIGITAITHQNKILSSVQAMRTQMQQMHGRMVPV
T7 sequence (P45984 whole entry): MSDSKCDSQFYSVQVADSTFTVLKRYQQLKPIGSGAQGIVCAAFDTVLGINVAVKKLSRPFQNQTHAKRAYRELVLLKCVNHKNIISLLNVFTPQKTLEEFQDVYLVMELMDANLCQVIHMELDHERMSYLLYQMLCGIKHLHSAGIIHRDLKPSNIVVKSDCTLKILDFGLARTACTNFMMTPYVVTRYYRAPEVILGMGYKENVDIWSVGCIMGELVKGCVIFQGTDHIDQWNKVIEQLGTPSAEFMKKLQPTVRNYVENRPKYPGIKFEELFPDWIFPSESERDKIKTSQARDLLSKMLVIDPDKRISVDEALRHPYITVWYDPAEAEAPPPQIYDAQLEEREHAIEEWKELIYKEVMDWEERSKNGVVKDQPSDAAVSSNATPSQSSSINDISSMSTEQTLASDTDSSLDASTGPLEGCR
T2 sequence (P11309 whole entry): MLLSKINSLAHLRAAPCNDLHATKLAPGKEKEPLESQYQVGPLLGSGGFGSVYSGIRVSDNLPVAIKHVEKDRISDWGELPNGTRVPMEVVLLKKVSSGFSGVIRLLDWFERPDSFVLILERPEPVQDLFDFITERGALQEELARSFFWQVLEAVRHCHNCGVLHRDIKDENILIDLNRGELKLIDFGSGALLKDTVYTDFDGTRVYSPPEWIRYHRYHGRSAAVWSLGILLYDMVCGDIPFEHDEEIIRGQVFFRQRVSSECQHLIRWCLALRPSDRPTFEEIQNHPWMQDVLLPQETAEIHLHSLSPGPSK
T9 sequence (P27037 20-513): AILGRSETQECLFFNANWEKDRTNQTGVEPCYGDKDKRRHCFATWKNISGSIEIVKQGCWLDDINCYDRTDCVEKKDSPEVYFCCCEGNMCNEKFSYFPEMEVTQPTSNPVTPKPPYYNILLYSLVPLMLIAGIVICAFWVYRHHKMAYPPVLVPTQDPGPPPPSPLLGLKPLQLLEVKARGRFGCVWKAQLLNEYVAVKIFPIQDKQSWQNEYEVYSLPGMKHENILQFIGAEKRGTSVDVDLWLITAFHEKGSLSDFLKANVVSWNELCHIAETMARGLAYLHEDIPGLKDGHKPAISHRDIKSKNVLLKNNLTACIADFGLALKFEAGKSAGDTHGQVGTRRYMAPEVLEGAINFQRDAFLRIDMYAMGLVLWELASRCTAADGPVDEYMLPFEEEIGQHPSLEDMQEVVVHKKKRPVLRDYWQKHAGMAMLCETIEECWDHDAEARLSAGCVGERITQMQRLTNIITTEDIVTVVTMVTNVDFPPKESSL
T11 sequence (P42685 whole entry): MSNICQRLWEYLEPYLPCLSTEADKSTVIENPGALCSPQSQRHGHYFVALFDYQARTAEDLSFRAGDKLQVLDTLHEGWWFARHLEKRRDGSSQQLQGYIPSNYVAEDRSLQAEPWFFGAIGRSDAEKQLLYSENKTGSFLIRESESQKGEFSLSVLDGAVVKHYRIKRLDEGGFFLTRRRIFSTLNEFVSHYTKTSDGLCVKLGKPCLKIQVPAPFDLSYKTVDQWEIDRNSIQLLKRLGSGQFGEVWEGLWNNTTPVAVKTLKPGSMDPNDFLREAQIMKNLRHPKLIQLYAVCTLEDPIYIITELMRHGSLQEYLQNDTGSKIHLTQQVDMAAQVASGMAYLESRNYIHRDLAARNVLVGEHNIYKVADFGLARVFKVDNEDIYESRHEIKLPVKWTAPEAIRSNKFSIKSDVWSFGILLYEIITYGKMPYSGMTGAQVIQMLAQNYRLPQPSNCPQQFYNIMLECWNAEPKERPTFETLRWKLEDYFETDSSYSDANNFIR
T1 sequence (P37023 22-503): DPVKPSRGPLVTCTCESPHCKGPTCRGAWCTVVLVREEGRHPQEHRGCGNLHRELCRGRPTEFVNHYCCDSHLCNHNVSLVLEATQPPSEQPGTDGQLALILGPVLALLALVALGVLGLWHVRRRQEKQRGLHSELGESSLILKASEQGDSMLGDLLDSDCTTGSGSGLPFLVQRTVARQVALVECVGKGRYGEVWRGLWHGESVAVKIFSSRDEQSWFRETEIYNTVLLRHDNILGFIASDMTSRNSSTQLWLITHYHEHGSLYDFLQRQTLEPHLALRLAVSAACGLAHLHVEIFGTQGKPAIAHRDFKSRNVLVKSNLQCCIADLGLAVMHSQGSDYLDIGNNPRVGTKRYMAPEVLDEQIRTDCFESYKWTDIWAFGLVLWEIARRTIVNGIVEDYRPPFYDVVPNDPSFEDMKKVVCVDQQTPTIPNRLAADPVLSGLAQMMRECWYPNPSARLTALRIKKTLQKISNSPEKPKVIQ

CNC(=O)c1ccc2c(c1)C(=O)c1ccc(Nc3ccc(F)c(NC(=O)C4CC4)c3)cc1CC2 [Compound 2015]
remaining activity at 0.2 µM (340 wild-type kinases [1]; 0.2 µM 2015, read-out: ACVRL1 residual activity): 100% | remaining activity at 1 µM (340 wild-type kinases [1]; 1 µM 2015, read-out: ACVRL1 residual activity): 102% | remaining activity at 0.2 µM (340 wild-type kinases [1]; ACVRL1, 0.2 µM, read-out: residual activity): 100% | remaining activity at 1 µM (340 wild-type kinases [1]; ACVRL1, 1 µM, read-out: residual activity): 102% | remaining activity at 0.2 µM (340 wild-type kinases [2]; 0.2 µM 2015, read-out: PIM1 residual activity): 88.3% | remaining activity at 1 µM (340 wild-type kinases [2]; 1 µM 2015, read-out: PIM1 residual activity): 91% | remaining activity at 0.2 µM (340 wild-type kinases [2]; PIM1, 0.2 µM, read-out: residual activity): 88.3% | remaining activity at 1 µM (340 wild-type kinases [2]; PIM1, 1 µM, read-out: residual activity): 91% | remaining activity at 0.2 µM (340 wild-type kinases [3]; 0.2 µM 2015, read-out: p38delta residual activity): 101% | remaining activity at 1 µM (340 wild-type kinases [3]; 1 µM 2015, read-out: p38delta residual activity): 90.6% | remaining activity at 0.2 µM (340 wild-type kinases [3]; p38delta, 0.2 µM, read-out: residual activity): 101% | remaining activity at 1 µM (340 wild-type kinases [3]; p38delta, 1 µM, read-out: residual activity): 90.6% | remaining activity at 0.2 µM (340 wild-type kinases [4]; 0.2 µM 2015, read-out: FGFR3 residual activity): 109% | remaining activity at 1 µM (340 wild-type kinases [4]; 1 µM 2015, read-out: FGFR3 residual activity): 97.1% | remaining activity at 0.2 µM (340 wild-type kinases [4]; FGFR3, 0.2 µM, read-out: residual activity): 109% | remaining activity at 1 µM (340 wild-type kinases [4]; FGFR3, 1 µM, read-out: residual activity): 97.1% | remaining activity at 0.2 µM (340 wild-type kinases [5]; 0.2 µM 2015, read-out: LTK residual activity): 100% | remaining activity at 1 µM (340 wild-type kinases [5]; 1 µM 2015, read-out: LTK residual activity): 99.3% | remaining activity at 0.2 µM (340 wild-type kinases [5]; LTK, 0.2 µM, read-out: residual activity): 100% | remaining activity at 1 µM (340 wild-type kinases [5]; LTK, 1 µM, read-out: residual activity): 99.3% | remaining activity at 0.2 µM (340 wild-type kinases [6]; 0.2 µM 2015, read-out: RPS6KA5 residual activity): 93.6% | remaining activity at 0.2 µM (340 wild-type kinases [6]; RPS6KA5, 0.2 µM, read-out: residual activity): 93.6% | remaining activity at 1 µM (340 wild-type kinases [6]; RPS6KA5, 1 µM, read-out: residual activity): 90.2% | remaining activity at 0.2 µM (340 wild-type kinases [7]; 0.2 µM 2015, read-out: JNK2 residual activity): 61.1% | remaining activity at 1 µM (340 wild-type kinases [7]; 1 µM 2015, read-out: JNK2 residual activity): 40.4% | remaining activity at 0.2 µM (340 wild-type kinases [7]; JNK2, 0.2 µM, read-out: residual activity): 61.1% | remaining activity at 1 µM (340 wild-type kinases [7]; JNK2, 1 µM, read-out: residual activity): 40.4% | effect on JNK2 (in words) (340 wild-type kinases [7]; panel of 340 kinases, 1 µM and 0.2 µM): moderate influence | remaining activity at 0.2 µM (340 wild-type kinases [8]; 0.2 µM 2015, read-out: HRI residual activity): 75% | remaining activity at 1 µM (340 wild-type kinases [8]; 1 µM 2015, read-out: HRI residual activity): 93.7% | remaining activity at 0.2 µM (340 wild-type kinases [8]; HRI, 0.2 µM, read-out: residual activity): 75% | remaining activity at 1 µM (340 wild-type kinases [8]; HRI, 1 µM, read-out: residual activity): 93.7% | remaining activity at 0.2 µM (340 wild-type kinases [9]; 0.2 µM 2015, read-out: ACVR2A residual activity): 119% | remaining activity at 1 µM (340 wild-type kinases [9]; 1 µM 2015, read-out: ACVR2A residual activity): 104% | remaining activity at 0.2 µM (340 wild-type kinases [9]; ACVR2A, 0.2 µM, read-out: residual activity): 119% | remaining activity at 1 µM (340 wild-type kinases [9]; ACVR2A, 1 µM, read-out: residual activity): 104% | remaining activity at 0.2 µM (340 wild-type kinases [10]; 0.2 µM 2015, read-out: EPHA4 residual activity): 95.1% | remaining activity at 1 µM (340 wild-type kinases [10]; 1 µM 2015, read-out: EPHA4 residual activity): 91.4% | remaining activity at 0.2 µM (340 wild-type kinases [10]; EPHA4, 0.2 µM, read-out: residual activity): 95.1% | remaining activity at 1 µM (340 wild-type kinases [10]; EPHA4, 1 µM, read-out: residual activity): 91.5% | remaining activity at 0.2 µM (340 wild-type kinases [11]; 0.2 µM 2015, read-out: FRK residual activity): 126% | remaining activity at 1 µM (340 wild-type kinases [11]; 1 µM 2015, read-out: FRK residual activity): 110% | remaining activity at 0.2 µM (340 wild-type kinases [11]; FRK, 0.2 µM, read-out: residual activity): 126% | remaining activity at 1 µM (340 wild-type kinases [11]; FRK, 1 µM, read-out: residual activity): 110% | remaining activity at 0.2 µM (340 wild-type kinases [12]; 0.2 µM 2015, read-out: CLK3 residual activity): 138% | remaining activity at 1 µM (340 wild-type kinases [12]; 1 µM 2015, read-out: CLK3 residual activity): 133% | remaining activity at 0.2 µM (340 wild-type kinases [12]; CLK3, 0.2 µM, read-out: residual activity): 138% | remaining activity at 1 µM (340 wild-type kinases [12]; CLK3, 1 µM, read-out: residual activity): 133% | remaining activity at 0.2 µM (340 wild-type kinases [13]; 0.2 µM 2015, read-out: PLK3 residual activity): 101% | remaining activity at 1 µM (340 wild-type kinases [13]; 1 µM 2015, read-out: PLK3 residual activity): 134% | remaining activity at 0.2 µM (340 wild-type kinases [13]; PLK3, 0.2 µM, read-out: residual activity): 101% | remaining activity at 1 µM (340 wild-type kinases [13]; PLK3, 1 µM, read-out: residual activity): 134% | remaining activity at 0.2 µM (340 wild-type kinases [14]; 0.2 µM 2015, read-out: FGFR1 residual activity): 105% | remaining activity at 1 µM (340 wild-type kinases [14]; 1 µM 2015, read-out: FGFR1 residual activity): 111% | remaining activity at 0.2 µM (340 wild-type kinases [14]; FGFR1, 0.2 µM, read-out: residual activity): 105% | remaining activity at 1 µM (340 wild-type kinases [14]; FGFR1, 1 µM, read-out: residual activity): 111%
